# pIC50: −log10 of the molar value. Counter-ions that a name gives are not always drawn. Like-named read-outs stand apart in the source and are kept apart here.
# What was measured:
# [1] = tested on: parental wild-type Ba/F3 cells; assay: Ba/F3 (WT) cell proliferation assay (Alamar Blue); type: cell-based; settings: Mus musculus; for IC50: BaF3, 72 h, read-out: BaF3 WT prolif (μM); for pIC50: BaF3, 72 hours, Alamar Blue, read-out: BaF3 WT prolif
# [2] = tested on: LP-1 cell line (FGF-1/Heparin induced pERK); assay: Cell-based pERK ELISA, LP-1 cells; settings: Homo sapiens, LP-1, read-out: LP-1 pERK ELISA (μM)
# [3] = BaF3, read-out: BaF3 WT prolif, % inhibition
SMILES,"inhibition at 10 µM [1, 3] [%]",IC50 [2] [µM],IC50 [1] [µM],pIC50 [1],"inhibition at 3 µM [1, 3] [%]"
"COc1cc(OC)nc(-c2ccn3c(-c4cccc(NC(=O)NCC(F)(F)F)c4)cnc3c2)n1 [Example 48, 1-{3-[7-(4,6-Dimethoxy-pyrimidin-2-yl)-imidazo[1,2-a]pyridin-3-yl]-phenyl}-3-(2,2,2-trifluoro-ethyl)-urea hydrochloride]",0,0.13,,,
"O=C(NCC(F)(F)F)Nc1cccc(-c2cnc3cc(-c4cnn(C5CCCNC5)c4)ccn23)c1 (centres unmarked) [Example 40, 1-{3-[7-(1-Piperidin-3-yl-1H-pyrazol-4-yl)-imidazo[1,2-a]pyridin-3-yl]-phenyl}-3-(2,2,2-trifluoro-ethyl)-urea formate]",,0.046,4,,
COc1nccc(-c2ccn3c(-c4cccc(NC(=O)NCC(F)(F)F)c4)cnc3c2)n1 [Example 181],,0.046,,6.31,
Nc1nc(-c2ccn3c(-c4cccc(NC(=O)NCC(F)(F)F)c4)cnc3c2)ncc1C(F)(F)F [Example 178],,0.018,,5.34,
"O=C1CN(c2ncc(-c3ccn4c(-c5cccc(NC(=O)NCC(F)(F)F)c5)cnc4c3)cn2)CCN1 [Example 94, 1-(3-{7-[2-(3-Oxo-piperazin-1-yl)-pyrimidin-5-yl]-imidazo[1,2-a]pyridin-3-yl}-phenyl)-3-(2,2,2-trifluoro-ethyl)-urea hydrochloride]",,0.95,5.8,,
CCNC(=O)Nc1cccc(-c2cnc3cc(-c4ncc(F)c(N)n4)ccn23)c1 [Example 163],11,0.22,,,38
"Cc1ccnc(-c2ccn3c(-c4cccc(NC(=O)NCC(F)(F)F)c4)cnc3c2)c1 [Example 97, 1-{3-[7-(4-Methyl-pyridin-2-yl)-imidazo[1,2-a]pyridin-3-yl]-phenyl}-3-(2,2,2-trifluoro-ethyl)-urea bis-hydrochloride]",,0.0081,0.44,,
COc1cc(-c2ccn3c(-c4cccc(NC(=O)NCC(F)(F)F)c4)cnc3c2)ncn1 [Example 183],,0.028,,6.54,
"O=C(NCC(F)(F)F)Nc1cncc(-c2cnc3cc(-c4nncs4)ccn23)c1 [Example 24, 1-[5-(7-[1,3,4]Thiadiazol-2-ylimidazo[1,2-a]pyridin-3-yl)pyridin-3-yl]-3-(2,2,2-trifluoroethyl)urea hydrochloride]",2.2,0.57,,,
"NC(=O)c1sccc1-c1ccn2c(-c3cccc(NC(=O)NCC(F)(F)F)c3)cnc2c1 [Example 43, 3-(3-{3-[3-(2,2,2-Trifluoroethyl)-ureido]-phenyl}-imidazo[1,2-a]pyridin-7-yl)-thiophene-2-carboxylic acid amide hydrochloride]",0,0.35,,,
"Cc1ccnc(-c2ccn3c(-c4cccc(NC(=O)NCC(F)(F)F)c4)cnc3c2)n1 [Example 59, 1-{3-[7-(4-Methyl-pyrimidin-2-yl)-imidazo[1,2-a]pyridin-3-yl]-phenyl}-3-(2,2,2-trifluoro-ethyl)-urea hydrochloride]",,0.1,5.1,,
"O=C(NCC(F)(F)F)Nc1cccc(-c2cnc3cc(-c4cccnc4)ccn23)c1 [Example 78, 1-[3-(7-Pyridin-3-yl-imidazo[1,2-a]pyridin-3-yl)-phenyl]-3-(2,2,2-trifluoro-ethyl)-urea]",,0.017,,6.82,
COc1ncc(-c2ccn3c(-c4cccc(NC(=O)NCC(F)(F)F)c4)cnc3c2)cc1C [Example 188],,0.09,,6.37,
"O=C(NCC(F)(F)F)Nc1cccc(-c2cnc3cc(-c4ccncc4)ccn23)c1 [Example 83, 1-[3-(7-Pyridin-4-yl-imidazo[1,2-a]pyridin-3-yl)-phenyl]-3-(2,2,2-trifluoro-ethyl)-urea]",,0.012,,,
"O=C(NCC(F)(F)F)Nc1cncc(-c2cnc3cc(-c4cccnn4)ccn23)c1 [Example 20, 1-[5-(7-Pyridazin-3-ylimidazo[1,2-a]pyridin-3-yl)pyridin-3-yl]-3-(2,2,2-trifluoroethyl)urea]",,1.1,,,

# — patent publication US8796244B2, “Imidazopyridine derivatives as inhibitors of receptor tyrosine kinases” (Astex Therapeutics Ltd, priority 2008, dated 2014)
